Data on 12 compounds can be found in publication PMC8006142 (Journal of Medicinal Chemistry, 2021).

Data set [1] concerns the target T1, AM1 receptor (Homo sapiens, UniProt O60895+Q16602).
T1 construct: expressed in transfected cells; host or cells: GPCR/RAMP-overexpressing cells; the AM1 line itself is not described
The data set can be described thus: TR-FRET cAMP accumulation, AM1 receptor cross-screen. The data set is classed as cell-based. Conditions: Table 2; read-out: pIC50 AM1 (converted). The protocol:
(§1) The ability of the compounds to inhibit cAMP production induced by an EC50 concentration of the maximum agonist activation (information previously published[34]) in GPCR/RAMP-overexpressing cells (i.e., AM2, CGRP cells) was evaluated using cAMP accumulation assays. Each compound was tested at 8 full-log concentrations (10^–11–10^–5 M) including a negative control (blank). The total cAMP was measured using the TR-FRET LANCE cAMP detection kit (PerkinElmer, AD0264), as described previously.[34] Briefly, frozen cells ([…]) were thawed and prepared in warm stimulation buffer (1× HBSS, 5 mM N-(2-hydroxyethyl)piperazine-N′-ethanesulfonic acid (HEPES), 0.5 mM IBMX, and 0.1% bovine serum albumin (BSA)). Alexa Fluor conjugated anti-cAMP (1:100 concentration) was then added to the cell suspension, and cells were plated (2500 cells, 6 μL) in a 384-well white opaque microtiter plate (OptiPlates, PerkinElmer, 6007299). […] Subsequently, a 12 μL detection mix (Europium-Chelate streptavidin/biotinylated cAMP) was added to stop the reaction and induce cell lysis. TR-FRET was detected after an hour of incubation by an EnSight multimode Plate reader (PerkinElmer) at 320/340 nm excitation and 615/665 nm emission. Data were normalized to agonist only and blank (stimulation buffer only) wells as 0 and 100% cAMP inhibition, respectively.
The final DMSO concentration was below 0.5%, and this was kept consistent in all of the wells, including agonist alone and blank. The same methodology including the number of cells was used for all cell lines. […] No further constraints in any parameters of the curves were used.
On the technique in general: In TR-FRET formats the signal depends on donor and acceptor labels being close together.

Data set [2] deals with CGRP receptor (Homo sapiens, UniProt O60894+Q16602). In words: TR-FRET cAMP accumulation, inhibition of agonist-induced cAMP in CGRP receptor-overexpressing cells. It counts as cell-based. The note with it: supplementary CSV; read-out: pIC50 CGRPR (converted). Here is the method: as §1, with “respectively. […]” for “respectively.”
For data set [3], the target named is AM2 receptor (Homo sapiens, UniProt O60896+Q16602). In words: TR-FRET cAMP accumulation, inhibition of agonist-induced cAMP in AM2 receptor-overexpressing cells. It counts as cell-based. The note with it: supplementary CSV; read-out: pIC50 AM2R (converted). The protocol: as §1, with “respectively. […]” for “respectively.”
In data set [4] the test system is MDA-MB-231 cells. The data set can be described thus: Real-Time-Glo MT viability assay. It counts as cell-based, human. The note with it: 10 μM, daily treatment, after 3 days, versus vehicle-treated controls. The protocol: Cell viability in human breast cancer cells (MDA-MB-231) was quantified using Real-Time-Glo MT Cell Viability Assay (Promega, G9712) as previously described.[34] Cells (2000 cells) were seeded into 96-well white clear-bottom plates (Corning, 3903) in full serum media overnight before washing and changing to suboptimal media (RPMI + 5% FBS + 1% P/S) containing Real-Time-Glo reagents according to the Promega protocol. A baseline luminescence read (prior to treatment) was taken using an EnSight Multimode Plate Reader (PerkinElmer) after an hour of incubation at 37 °C. Cells were then treated with compounds or vehicle control (PBS + 0.05% DMSO) daily. Results were normalized to vehicle-treated controls as 100% viable (Graphpad Prism 7 and 8).

The subject of data set [5] is MDA-MB-231 tumor. In words: Subcutaneous MDA-MB-231 xenograft in BALB/c nude mice. It counts as in vivo. Here is the method:
The study was performed using 6–7 week old BALB/c nude female mice, with a weight range of 15–20 g. Animals were provided by Envigo Corporation (Cambridgeshire, U.K.) or Charles River Laboratories (Massachusetts) depending on availability. Each experiment started with 10 mice (experimental units) in each experimental/control group. Subsequent analysis (tumor growth and histology) was only performed in animals where tumors had established and were palpable within 3 days of implantation. This was in accordance with the power calculation performed to ensure robust statistical analysis by the University of Sheffield Statistical Service. The animals were housed in individually ventilated cages (with the appropriate bedding and flooring conditions) in environmentally controlled conditions with a 12 h light/dark cycles at ∼26 °C. Mice had access to an adequate amount of water and a 2018 Teklad Global 18% Protein Rodent Diet containing 1.01% calcium (Harlan Laboratories, U.K.). The day-to-day care of the animals was carried out by the technicians in the Biological Services (The University of Sheffield, U.K.). All scientific procedures on animals were carried under the U.K. Home Office Project Licenses (40/3499) and Procedure Individual Licenses.
Compounds were dissolved in DMSO (Sigma-Aldrich, D4540) and sonicated at 37 °C for 10 min. The appropriate volume of solvent (Kolliphor HS15 (1 part, grams), Kollisolv PEG E 400 (3 parts, mL), and PBS (6 parts, mL)) was then added to yield a 6% DMSO/94% solvent solution. These working stocks (8 mg/mL) were further sonicated at 37 °C for 10 min before storing at −20 °C. To make treatment aliquots, equal amounts of the working stock (or vehicle control) and solvent were mixed and sonicated at 37 °C for 10 min (4 mg/mL, equivalent to 20 mg/kg, 3% DMSO/97% solvent). Vehicle control and compounds were sonicated at 37 °C for 10 min prior to ip injections (200 μL per mouse).
Cells were prepared according to standard cell culture techniques. Cell pellets were resuspended in 50% PBS/50% Matrigel (Corning, 354234). Matrigel/PBS cell suspension, needles (25G), and syringes (1 mL) were kept on ice before and during tumor inoculation into mice. Cell suspension (100 μL, 5 × 10^6 cells) was injected subcutaneously into the left flank of 6–7 weeks old female immunodeficient nude athymic mice (BALB/c nude). Once the tumors became palpable (around 100 mm^3), mice were randomized into treatment groups. Mice were treated daily at the same time of the day with an ip injection of 20 mg/kg of compound or vehicle control (200 μL per mouse) until humane end point. […] Tumor size and mouse weights were measured twice a week. At the end of each study, the animals were euthanized following the appropriate procedures listed in the ASPA Act 1986. Vital organs and tumors were stored in 10% neutral-buffered formalin for further histological analysis. The primary experimental outcome was tumor volume. The percentage tumor volume was calculated by normalizing measured tumor volumes to the initial tumor volume prior to the start of treatment on day 5. Simple linear regression was done to compare the line of best fit between the growth curves. Blinding was not used for the in vivo studies.

In data set [6] the test system is CGRP. Details: method as in PMID 24900170, PMID 16161996. Conditions: cited from earlier work.

T1 sequence (Q16602 23-461): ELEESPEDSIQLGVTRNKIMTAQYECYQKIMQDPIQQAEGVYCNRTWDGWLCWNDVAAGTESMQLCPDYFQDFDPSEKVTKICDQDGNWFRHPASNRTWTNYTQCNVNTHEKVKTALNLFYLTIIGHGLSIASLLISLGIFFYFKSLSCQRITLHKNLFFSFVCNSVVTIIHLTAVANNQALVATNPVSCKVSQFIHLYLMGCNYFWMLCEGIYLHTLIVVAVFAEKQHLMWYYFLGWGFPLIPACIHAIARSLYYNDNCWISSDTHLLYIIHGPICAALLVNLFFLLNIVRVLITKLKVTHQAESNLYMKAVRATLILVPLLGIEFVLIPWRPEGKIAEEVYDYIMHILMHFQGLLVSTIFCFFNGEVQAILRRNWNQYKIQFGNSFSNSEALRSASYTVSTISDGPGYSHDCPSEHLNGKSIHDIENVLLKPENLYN
T1 sequence (O60895 43-175): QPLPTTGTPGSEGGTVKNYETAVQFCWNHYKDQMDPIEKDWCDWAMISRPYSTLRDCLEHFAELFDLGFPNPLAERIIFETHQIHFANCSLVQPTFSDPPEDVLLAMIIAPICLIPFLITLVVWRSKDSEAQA
Chain of CGRP receptor (Q16602 23-461): as the sequence (Q16602 23-461) above
Chain of CGRP receptor (O60894 27-148): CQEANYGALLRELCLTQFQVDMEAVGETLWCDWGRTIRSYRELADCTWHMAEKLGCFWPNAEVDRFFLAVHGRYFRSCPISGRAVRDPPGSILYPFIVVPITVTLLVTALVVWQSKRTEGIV
Chain of AM2 receptor (Q16602 23-461): as the sequence (Q16602 23-461) above
Chain of AM2 receptor (O60896 24-148): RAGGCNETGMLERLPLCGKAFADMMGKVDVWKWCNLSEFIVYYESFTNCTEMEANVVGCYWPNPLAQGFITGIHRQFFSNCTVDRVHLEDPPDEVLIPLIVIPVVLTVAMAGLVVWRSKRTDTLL

Take `CN1CCCC(CN(CC(=O)Nc2ccc3c(c2)CC2(C3)C(=O)Nc3ncccc32)C(=O)C(C)(C)C)C1` (racemic) [(±)-6, N-((1-Methylpiperidin-3-yl)methyl)-N-(2-oxo-2-((2′-oxo-1,1′,2′,3-tetrahydrospiro[indene-2,3′-pyrrolo[2,3-b]pyridin]-5-yl)amino)ethyl)pivalamide]: in data set [1], the IC50 is above 10 µM.
Regarding `CC(N)c1ccccc1CN(CC(=O)Nc1ccc2c(c1)CC1(C2)C(=O)Nc2ncccc21)C(=O)C(C)(C)C` (racemic) [(±)-29, N-(2-(1-Aminoethyl)benzyl)-N-(2-oxo-2-((2′-oxo-1,1′,2′,3-tetrahydrospiro[indene-2,3′-pyrrolo[2,3-b]pyridin]-5-yl)amino)ethyl)pivalamide], the IC50 in data set [1] was above 10 µM.
The same measure, in the same setting: for `CC(C)(C)C(=O)N(CC(=O)Nc1ccc2c(c1)CC1(C2)C(=O)Nc2ncccc21)Cc1ccccn1` (stereo not shown) [Compound 5, N-(2-Oxo-2-((2′-oxo-1,1′,2′,3-tetrahydrospiro[indene-2,3′-pyrrolo[2,3-b]pyridin]-5-yl)amino)ethyl)-N-(pyridin-2-ylmethyl)pivalamide] the value was 50.1 µM; for `CC(C)(C)C(=O)N(CC(=O)Nc1ccc2c(c1)CC1(C2)C(=O)Nc2ncccc21)Cc1nccs1` (stereo not shown) [Compound 8, N-(2-Oxo-2-((2′-oxo-1,1′,2′,3-tetrahydrospiro[indene-2,3′-pyrrolo[2,3-b]pyridin]-5-yl)amino)ethyl)-N-(thiazol-2-ylmethyl)pivalamide], 25.1 µM.
As to `CC(C)(C)C(=O)N(CC(=O)Nc1ccc2c(c1)CC1(C2)C(=O)Nc2ncccc21)Cc1ccccc1CN` (stereo not shown) [Compound 12, N-(2-(Aminomethyl)benzyl)-N-(2-oxo-2-((2′-oxo-1,1′,2′,3-tetrahydrospiro[indene-2,3′-pyrrolo[2,3-b]pyridin]-5-yl)amino)ethyl)pivalamide], the IC50 in data set [1] was 7.94 µM.
For `CC(C)(C)C(=O)N(CC(=O)Nc1ccc2c(c1)CC1(C2)C(=O)Nc2ncccc21)Cc1ccccc1CO` (stereo not shown) [Compound 13, N-(2-(Hydroxymethyl)benzyl)-N-(2-oxo-2-((2′-oxo-1,1′,2′,3-tetrahydrospiro[indene-2,3′-pyrrolo[2,3-b]pyridin]-5-yl)amino)ethyl)pivalamide], in data set [1], the IC50 is 1.26 µM.
For the compound `CC(C)(C)C(=O)N(CC(=O)Nc1ccc2c(c1)CC1(C2)C(=O)Nc2ncccc21)Cc1ccccc1C(N)=O` (stereo not shown) [Compound 15, 2-((N-(2-Oxo-2-((2′-oxo-1,1′,2′,3-tetrahydrospiro[indene-2,3′-pyrrolo[2,3-b]pyridin]-5-yl)amino)ethyl)pivalamido)methyl)benzamide], in data set [1], the IC50 was 6.31 µM.
`CC(C)(C)C(=O)N(CC(=O)Nc1ccc2c(c1)CC1(C2)C(=O)Nc2ncccc21)Cc1ccccc1CNCc1ncc[nH]1` (stereo not shown) [Compound 23, N-(2-((((1H-Imidazol-2-yl)methyl)amino)methyl)benzyl)-N-(2-oxo-2-((2′-oxo-1,1′,2′,3-tetrahydrospiro[indene-2,3′-pyrrolo[2,3-b]pyridine]-5-yl)amino)ethyl)pivalamide]: the results for the IC50 in data set [2] and in data set [3] were 3.98 nM and 251 nM, respectively.
In the case of `CNCc1ccccc1CN(CC(=O)Nc1ccc2c(c1)CC1(C2)C(=O)Nc2ncccc21)C(=O)C(C)(C)C` (stereo not shown) [Compound 25], the “decrease of MDA-MB-231 viability” value in data set [4] is reported as 55%. In data set [5] (20 mg/kg ip daily, simple linear regression, p < 0.001), the tumor growth rates entry is given as “significantly reduced”. Besides, in data set [5] (20 mg/kg ip once daily), the adverse effects result is “No adverse effects were observed”, the “body weight compared with vehicle-treated mice” value was “did not differ significantly” and the tolerability entry was “well tolerated”. Besides, in data set [5] (20 mg/kg ip once daily, 4 weeks after treatment, versus vehicle), the “decrease of breast cancer xenograft tumor growth” value is 47%. For the same compound, the IC50 in data set [1] was 2 µM.
Turning to `CC(C)(C)C(=O)N(CC(=O)Nc1ccc2c(c1)CC1(C2)C(=O)Nc2ncccc21)Cc1ccccc1CNC1CC1` (stereo not shown) [Compound 26, N-(2-((Cyclopropylamino)methyl)benzyl)-N-(2-oxo-2-((2′-oxo-1,1′,2′,3-tetrahydrospiro[indene-2,3′-pyrrolo[2,3-b]pyridin]-5-yl)amino)ethyl)pivalamide], the IC50 in data set [1] was 3.16 µM.
`CC(C)(C)C(=O)N(CC(=O)Nc1ccc2c(c1)CC1(C2)C(=O)Nc2ncccc21)Cc1ccccc1CN1CCC1` (stereo not shown) [Compound 27, N-(2-(Azetidin-1-ylmethyl)benzyl)-N-(2-oxo-2-((2′-oxo-1,1′,2′,3-tetrahydrospiro[indene-2,3′-pyrrolo[2,3-b]pyridine]-5-yl)amino)ethyl)pivalamide]: in data set [1], the IC50 was 2 µM.
In the case of `O=C(CN1C(=O)C2(CCCC2)NC[C@H]1c1cc(F)cc(F)c1)Nc1ccc2c(c1)C[C@@]1(C2)C(=O)Nc2ncccc21` [MK-3207], the CGRP potency in data set [6] is listed as 0.12 nM.
